We go through one compound from patent publication US20220304951A1, “ANTICANCER COMPOSITIONS AND METHODS FOR USING SAME” (Lispiro LLC, priority 2021, published 2022).

What all share (assay type): cell-based
Data set [1] deals with human colon adenocarcinoma cells (HT29). The data set can be described thus: New fuchsine treatment of HT29 cells, Trypan blue, automatic cell counter (Example 4). As to the method: The general study methods of study were as follows: HT29 cells were grown in incubator at 37 degrees C. and 5% CO2 until 70% confluence was reached. After reaching of 70% confluence, medium was changed to medium with different concentration of new fuchsine (0 μM, 15 μM, 31 μM, 62 μM, 125 μM and 250 μM). Flasks were kept in the CO2 incubator (5% CO2, 37-degree C) for additional 24 hours. After 24 hours of treatment cells were detached with Trypsin, washed with fresh medium and stained with Trypan blue. Cell viability was examined in automatic cell counter (Invitrogen).

Data set [2] has as its system Human colon carcinoma cells (HT29). The data set can be described thus: New fuchsine treatment of human colon carcinoma cells, H&E staining, light microscopy (Example 1). The settings on record: 48 hours, H&E stain. As to the method: (§1) 4 flasks Thermo Scientific Nunc Nunclon Delta Surface 12.5 cm (Cat.No136196) with McCoy's5A complete medium were seeded with cell culture of CRL1790 (ATCC) and 4 flasks Thermo Scientific Nunc Nunclon Delta Surface 12.5 cm (Cat.No136196) with McCoy's5A complete medium were seeded with cell culture of HT29 (ATCC) and were kept at 37 degrees 5% CO2 in CO2 incubator until it reached of 70% confluence (2 days). After reaching of 70% confluence flasks McCoy's5A medium with 10% of FBS was changed to the same medium with different concertation of new fuchsine (0 uM, 25 uM, 50 uM, 100 uM, 150 uM) (Sigma Cat. No 72200). Flasks were kept in the CO2 incubator 5% CO2, 37-degree C for additional 48 hours. After 48 hours of treatment all flasks were stained by fixed by 10% Formaldehyde and stained by H&E. After completing of the staining protocol the flasks were examined in the light microscope under magnification x100 and multiple pictures were taken using Olympus BX51 microscope and Olympus DP73 digital camera.

Data set [3] deals with normal human epithelial like cells (CRL-1790). Description: New fuchsine treatment of normal human epithelial like cells, H&E staining, light microscopy (Example 1). The settings on record: all tested concentrations (25, 50, 100, 150 uM), 48 hours, H&E stain. As to the method:
as §1

Data set [4] relates to Human Cervical carcinoma cell line (HeLa). The data set can be described thus: New fuchsine treatment of HeLa cells, Trypan blue, automatic cell counter (Example 3). As to the method:
Hela cells were growing in incubator at 37 degrees C. and 5% CO2 until 70% confluence was reached. After reaching of 70% confluence, medium was changed to medium with different concentrations of new fuchsine (0 μM, 15 μM, 31 μM, 62 μM, 125 μM and 250 μM). Flasks were kept in the CO2 incubator (5% CO2, 37-degree C) for additional 24 hours. After 24 hours of treatment, cells were detached with Trypsin, washed with fresh medium and stained with Trypan blue. Number of cells and viability were examined in automatic cell counter (Invitrogen).

Data set [5] relates to normal human epithelial like cells (CRL-1790). Description: New fuchsine treatment of normal human epithelial like cells, H&E staining, light microscopy (Example 2). The settings on record: all tested concentrations (50 uM), 12 hours, H&E stain. The protocol: (§2) 2 flasks Thermo Scientific Nunc Nunclon Delta Surface 12.5 cm (Cat. No 136196) with McCoy's5A complete medium were seeded with cell culture of CRL1790 (ATCC) and 2 flasks Thermo Scientific Nunc Nunclon Delta Surface 12.5 cm (Cat. No 136196) with DMEM complete medium were seeded with cell culture of HT1080 (ATCC) and were kept at 37 degrees 5% CO2 in CO2 incubator until it reached of 100% confluence (2 days). After reaching of 100% confluence medium with 10% of FBS was changed to the same medium with different concertation of New Fuchsin (0 uM, and 50 uM) (Sigma Cat. No 72200). Flasks were kept in the CO2 incubator 5% CO2, 37-degree C for additional 12 hours. After 12 hours of treatment all flasks were stained by fixed by 10% Formaldehyde and stained by H&E. After completing of the staining protocol the flasks were examined in the light microscope under magnification x100 and multiple pictures were taken using Olympus BX51 microscope and Olympus DP73 digital camera.

For data set [6], the system named is Fibrosarcoma cells (HT-1080). Description: New fuchsine treatment of human fibrosarcoma cells, H&E staining, light microscopy (Example 2). As to conditions: new fuchsine 50 uM, 12 hours, H&E stain; corresponds to empty plastic. The protocol:
as §2

Where [7] appears, read: new fuchsine 250 uM, 24 hours, Trypan blue.

As for `CC1=CC(=C(c2ccc(N)c(C)c2)c2ccc(N)c(C)c2)C=CC1=N.Cl` [new fuchsine, [4-[bis(4-amino-3-methylphenyl)methylidene]-2-methylcyclohexa-2,5-dien-1-ylidene]azanium; chloride], the “toxicity to human colon adenocarcinoma cells (HT29)” value in data set [1] (all tested concentrations (15, 31, 62, 125, 250 μM), 24 hours, Trypan blue viability) is on record as “did exhibit toxicity”. The “toxicity to colon adenocarcinoma cells (HT29)” value in data set [1] (setting [7]) is recorded as less than 100%. For the same compound, the “efficacy for colon carcinoma (HT29 cells) compared with cervical carcinoma (HeLa cells), summary” value in data set [1] (summary of the examples) is recorded as “much less effective”. Besides, the “concentration at which first signs of toxicity to colon carcinoma cells (HT29) can be seen” value in data set [2] was 50 µM. Besides, the “toxicity to carcinoma cells (HT29)” value in data set [2] (new fuchsine 150 uM, corresponds to empty plastic) came to 100%. The “visual toxicity to normal human epithelial like cells (CRL-1790)” value in data set [3] and in data set [5] was “did not exhibit any visual toxicity” each time. Also, the “toxicity to human carcinoma cells (HeLa)” value in data set [4] (all tested concentrations (15, 31, 62, 125, 250 μM), 24 hours, Trypan blue viability and cell count) is on record as “exhibited toxicity”. In addition, the “toxicity to carcinoma cells (HeLa)” value in data set [4] (setting [7]) was 100%. Besides, the “cytotoxic effect on cervical carcinoma (HeLa cells), summary” value in data set [4] (summary of the examples) is reported as “high efficacy, dose dependent cytotoxic effect”. Also, the “toxicity to Fibrosarcoma cells (HT-1080)” value in data set [6] is recorded as 100%.
